# Where “and” joins values, the source holds several entries; their conditions need not be identical. Equal values may be shown once.
# Tests used:
# [1] = test system: patients with cognitive dysfunction caused by HIV-associated CM-IRIS; assay: Center for Epidemiological Research Depression Scale (CES-D); type: in vivo, human; settings: before vs after lenalidomide treatment
# [2] = test system: intracranial inflammation (CSF WBC, protein, albumin, IgG, glucose, chlorine, pressure); assay: CSF routine and biochemistry analysis; type: in vivo, human; settings: for Chlorine-W 24 / Protein-W 24 / WBC-W 24 / Glucose-W23 / Δ Protein / ΔChlorine / ΔGlucose / ΔWBC: CSF; for Glucose-W23: after treatment; for Δ Protein / ΔChlorine / ΔGlucose / ΔWBC / ΔICP: week 24 - week 0, median
# [3] = withdrawal for adverse event in the lenalidomide treatment cohort; type: in vivo, human; settings: of 8 patients with cognitive dysfunction at enrollment
# Experimental: Screening process: 14 patients were included in the lenalidomide treatment cohort based on the inclusion and exclusion criteria: 8 had cognitive dysfunction at the time of enrollment. Among them, one patient withdrew from the study due to skin allergy, so only 7 patients were followed up for 24 weeks.
# Lenalidomide Treatment: Patients were treated with six cycles of lenalidomide (one cycle: […] for 3 weeks, followed by 1 week ceased lenalidomide) when they were enrolled. The drug was stopped at the end of 6 cycles.
# [4] = cited from earlier work
# [5] = individual Patients 1-4 (cognitive improvement group)
# [6] = individual Patients 5-7 (cognitive non-improvement group)
structure (smiles),measurement,setting,value
Nc1cccc2c1CN(C1CCC(=O)NC1=O)C2=O (stereo not drawn) [lenalidomide],"CES-D score for anxiety or depression, before to after treatment",[1],no significant difference
same,change in CSF WBC after lenalidomide treatment,"[2]; CI group, P=0.032",significant decline
same,change in CSF albumin after lenalidomide treatment,"[2]; CI group, P=0.034",significant decline
same,change in CSF protein after lenalidomide treatment,"[2]; CI group, P=0.034",significant decline
same,change in CSF IgG levels after lenalidomide treatment,"[2]; CI group, P=0.050",significant decline
same,Chlorine-W 24,[2]; [5],128 mmol/L (2×) and 131 mmol/L and 121 mmol/L
same,Protein-W 24,[2]; [5],1.081 g/L and 1.24 g/L and 0.745 g/L and 0.788 g/L
same,WBC-W 24,[2]; [5],2 ×106/L (2×) and 10 ×106/L and 0 ×106/L
same,Chlorine-W 24,[2]; [6],123 mmol/L (2×) and 127 mmol/L
same,Protein-W 24,[2]; [6],0.37 g/L and 0.908 g/L and 1.15 g/L
same,WBC-W 24,[2]; [6],1e+06 L⁻¹ and 1e+07 L⁻¹ and 7e+06 L⁻¹
same,Glucose-W23,[2]; [5],2.4 mmol/L and 2.5 mmol/L and 3.6 mmol/L and 2.6 mmol/L
same,Glucose-W23,[2]; [6],4.7 mmol/L and 2.4 mmol/L and 2.8 mmol/L
same,Δ Protein,[2]; CI group,-4.4 g/L
same,ΔChlorine,[2]; CI group,2.0 mmol/L
same,ΔGlucose,[2]; CI group,0.4 mmol/L
same,ΔWBC,[2]; CI group,-1.18e+08 L⁻¹
same,Δ Protein,[2]; CNI group,0.3 g/L
same,ΔChlorine,[2]; CNI group,-4.0 mmol/L
same,ΔGlucose,[2]; CNI group,-0.3 mmol/L
same,ΔWBC,[2]; CNI group,7e+06 L⁻¹
same,ICP-W 24,[2]; [5],120 mmH2O and 152 mmH2O and 150 mmH2O and 85 mmH2O
same,ICP-W 24,[2]; [6],200 mmH2O and 120 mmH2O and 95 mmH2O
same,ΔICP,[2]; CI group,10.0 mmH2O
same,ΔICP,[2]; CNI group,−20.0 mmH2O
same,patients withdrawn from the study due to skin allergy,[3],one
same,bioavailability,[4],high
